Measured values from paper PMC11530689, “Anti colorectal cancer activity and in silico studies of novel pyridine nortopsentin analog as cyclin dependent kinase 6 inhibitor” (Scientific Reports, 2024).

How the values were obtained:
[1] = test system: HCT-116 cells; experiment: MTT assay, IC50 determination; format: cell-based; settings: Homo sapiens, colorectal cancer HCT-116 cells, 48 h
Description: HCT-116 (colon cancer cell line) was obtained from the American Type Culture Collection (ATCC). The cancer cell line was grown in Dulbecco’s Modified Eagle’s Medium (DMEM) supplemented with 10% fetal bovine serum (FBS), penicillin/streptomycin (100 U/mL and 100 μg/mL, respectively) and 2 mM L-glutamine. The cells were maintained at 37 °C in 5% CO2.
(§1) The cytotoxic activity of nortopsintin analogs (4a–4j) was determined by the national cancer institute (NCI, Bethesda, Maryland, USA) against 60 different cancer cell lines at a single concentration of (10^−5 M). For the determination of IC50 value, we used MTT assay kit (Sigma) according to the manufacturer’s protocol. HCT-116 cells were seeded into a 96-well plate at a concentration of 20,000 cells/well. After 24 h, the media was aspirated and replaced with serum-free media containing serial dilutions of the 4i compound. The cells were treated for 48 h in triplicates. […] The percentage of cytotoxicity was calculated using the following equation: % Cytotoxicity = [1 − (AVx/AVNC)] × 100.
Where, AVx denotes the average absorbance of the sample and AVNC denotes the average absorbance of the negative control. The absorbance was measured at 570 nm with reference at 690 nm.

[2] = test system: HCT116 cells; experiment: Cell cycle analysis by FACS (PI staining); format: cell-based, human; settings: HCT116, treated with IC50 for 48 h, control 41.93%
Description: Briefly, HCT116 cells were treated with 4i compound’s IC50 for 48 h. Then, the cells were fixed in cold 70% ethanol solution for 2 h at 4 °C and centrifuged at 800 g for 5 min. The ethanol solution was removed. PBS was used to wash the cells twice. DNA was stained with 1 µg/mL propidium iodide (PI) solution (Sigma-Aldrich, St. Louis, MO, USA), supplemented with 100 µg/mL RNase A (Roche, Basel, Switzerland) for 30 min in the dark at 37 °C. After centrifugation, the cells were suspended in phosphate buffer solution and the fluorescence was measured using flow cytometry by FACSCalibur (BD Biosciences, Mountain View, CA). The data were analyzed using the CellQuest software (BD Biosciences).

[3] = test system: CDK4 gene expression; experiment: Gene expression by quantitative real-time PCR, CDK4; format: cell-based, human; settings: IC50 dose, 48 h, normalized to GAPDH, vs control
Description: The cells were seeded in a six-well plate at a concentration of 3 × 10^5 cells/well. After a 24 h incubation, the IC50 dose of active compound 4i was applied to each well for 48 h. The cells were collected and centrifuged at 2500 rpm for 15 min at 4 °C. The total RNA isolation kit (RNeasy extraction kit—QIAGEN) was used to isolate RNA according to the manufacturer’s instructions.
Gene expression analysis by quantitative real-time PCR. The levels of gene expression of CDK2, CDK4 and CDK6 were determined using iScript One-Step RT-PCR kit with SYBR Green (BIORAD) according to the manufacturer protocol. The sequences of the used primers are illustrated in Table 4. The genes expression was normalized to GAPDH as the housekeeping gene. The protocol used for cDNA synthesis was: 10 min at 50 °C, iScript Reverse transcriptase inactivation: 5 min at 95 °C and PCR cycling and detection (30 to 45 cycles): 10 s at 95 °C and 30 s at 55 °C to 60 °C.

[4] = biological target: CDK2/Cyclin E1 (Homo sapiens, UniProt P24941); experiment: Cyclin dependent kinase enzymatic activity assay (ADP-Glo); format: biochemical
Description: (§2) ADP-Glo™ Kinase Assay kit (Promega, USA) was used for the enzymatic activity analysis according to the manufacturer’s instructions. In brief, to each well we added 1 μl of inhibitor, 2 μl of each cyclin dependent kinase enzymes, and 2 μl of substrate/ATP mix and incubated at room temperature for 60 min. After that 5 μl of ADP‐Glo™ reagent was added and incubated at room temperature for 40 min. 10 μl of kinase detection reagent was added and incubated at room temperature for 30 min, then the luminescence was measured.

[5] = biological target: CDK4/Cyclin D3 (Homo sapiens, UniProt P11802); experiment: as above; format: biochemical
Description: as §2

[6] = biological target: CDK6/Cyclin D3 (Homo sapiens, UniProt Q00534); experiment: as above; format: biochemical
Description: as §2

[7] = test system: 60 different cancer cell lines; experiment: NCI screen against 60 cancer cell lines, overall; format: cell-based; settings: single concentration 10^−5 M
Description: as §1, with “(4a-4j)” for “(4a–4j)”, “(10^-5” for “(10^−5”, “manufacturer's” for “manufacturer’s”, “compound.” for “compound. The cells were treated for 48 h in triplicates.”, “- ([…])]” for “− (AVx/AVNC)]”

Chain of CDK4/Cyclin D3 (P11802 whole entry): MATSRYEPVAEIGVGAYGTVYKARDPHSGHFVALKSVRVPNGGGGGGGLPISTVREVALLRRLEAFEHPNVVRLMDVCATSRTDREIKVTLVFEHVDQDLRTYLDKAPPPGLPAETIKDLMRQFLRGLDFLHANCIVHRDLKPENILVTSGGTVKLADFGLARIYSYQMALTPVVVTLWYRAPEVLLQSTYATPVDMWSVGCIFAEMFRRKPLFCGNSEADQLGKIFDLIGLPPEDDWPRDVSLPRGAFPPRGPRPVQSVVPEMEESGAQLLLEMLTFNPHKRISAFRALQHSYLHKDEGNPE
Chain of CDK4/Cyclin D3 (P30281 whole entry partner): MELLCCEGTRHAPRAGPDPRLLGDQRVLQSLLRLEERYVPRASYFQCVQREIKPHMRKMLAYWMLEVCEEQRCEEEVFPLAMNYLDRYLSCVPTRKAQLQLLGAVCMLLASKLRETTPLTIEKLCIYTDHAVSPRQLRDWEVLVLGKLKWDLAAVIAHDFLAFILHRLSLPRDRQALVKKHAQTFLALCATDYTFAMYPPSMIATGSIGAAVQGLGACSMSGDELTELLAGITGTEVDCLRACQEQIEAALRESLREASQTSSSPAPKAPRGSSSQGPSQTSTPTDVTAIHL
Chain of CDK6/Cyclin D3 (Q00534 whole entry): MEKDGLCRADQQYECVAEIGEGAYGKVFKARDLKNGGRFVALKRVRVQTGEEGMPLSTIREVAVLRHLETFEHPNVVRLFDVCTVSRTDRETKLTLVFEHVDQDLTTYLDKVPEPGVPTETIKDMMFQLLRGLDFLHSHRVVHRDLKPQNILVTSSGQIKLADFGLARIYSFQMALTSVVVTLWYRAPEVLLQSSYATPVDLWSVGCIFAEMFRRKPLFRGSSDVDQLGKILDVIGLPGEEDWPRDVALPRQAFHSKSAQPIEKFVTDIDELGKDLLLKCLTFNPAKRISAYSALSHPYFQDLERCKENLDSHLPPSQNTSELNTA
Chain of CDK6/Cyclin D3 (P30281 whole entry partner): as the sequence (P30281 whole entry partner) above

SMILES: CN(C)c1ccc(-c2cc(-c3c[nH]c4ccccc34)nc(-c3c[nH]c4ccccc34)c2C#N)cc1 [4i]
- IC50 [1]: 0.0288 µM
- cells at G1 phase (%DIP G1) [2]: 47.62%
- Relative gene expression of CDK4 [3]: significantly suppress the expression
- IC50 [4]: 0.658 µM
- IC50 [5]: 0.265 µM
- IC50 [6]: 0.098 µM
- cytotoxic / antiproliferative activity over the panel [7]: highest level of cytotoxic activity
